Results reported in PubChem BioAssay (NCI).
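Test compounds were applied to cells in 96-well plates for 48 hours at 5 doses. TGI: total growth inhibition.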

Legend:
Test in all cases: NCI anticancer screen, dose series, 48 h
[1] = system: T-47D breast
[2] = system: A549 NSCLC
[3] = system: KM12 colon
[4] = system: OVCAR-5 ovarian
[5] = system: NCI-H226 lung
[6] = system: SK-MEL-28 melanoma
[7] = system: CCRF-CEM leukemia
[8] = system: BT-549 breast
[9] = system: HCT-15 colon
[10] = system: RPMI-8226 leukemia
[11] = system: MDA-MB-435
[12] = system: U251 CNS
[13] = system: ACHN renal
[14] = system: HOP-62 NSCLC
[15] = system: SNB-19 CNS
[16] = system: HCT-116 colon
[17] = system: SN12C renal
[18] = system: HCC-2998 colon
[19] = system: SF-268 CNS
[20] = system: NCI-H23 lung
[21] = system: MOLT-4 leukemia
[22] = system: MDA-N
[23] = system: UACC-62 melanoma
[24] = system: M14 melanoma
[25] = system: MCF7 breast
[26] = system: SK-OV-3 ovarian
[27] = system: CAKI-1 renal
[28] = system: HOP-92 NSCLC
[29] = system: PC-3 prostate
[30] = system: SW-620 colon
[31] = system: IGROV1 ovarian
[32] = system: OVCAR-3 ovarian
[33] = system: COLO 205 colon
[34] = system: MDA-MB-231 breast
[35] = system: DU-145 prostate
[36] = system: LOX IMVI melanoma
[37] = system: K-562 leukemia
[38] = system: NCI/ADR-RES ovarian
[39] = system: EKVX NSCLC
[40] = system: SK-MEL-2 melanoma
[41] = system: RXF 393 renal
[42] = system: A498 renal
[43] = system: UACC-257 melanoma
[44] = system: UO-31 renal
[45] = system: TK-10 renal
[46] = system: NCI-H522 lung
[47] = system: SF-539 CNS
[48] = system: OVCAR-4 ovarian
[49] = system: 786-0 renal
[50] = system: MALME-3M melanoma
[51] = system: SF-295 CNS
[52] = system: SK-MEL-5 melanoma
[53] = system: NCI-H460 lung
[54] = system: SR leukemia
[55] = system: SNB-75 CNS
[56] = system: OVCAR-8 ovarian
[57] = system: HT29 colon
[58] = system: HS 578T breast

Measured: TGI

CC[C@@]1(CCC(=O)NCCc2c[nH]c3ccccc23)CCC(=O)N2CCc3c([nH]c4ccccc34)[C@H]21
61.3 µM: [47]
86.4 µM: [40]
19.2 µM: [8]
34.4 µM: [21]
19.4 µM: [3]
33.4 µM: [38]
33.3 µM: [41]
65.3 µM: [23]
30 µM: [19] | [31]
77.8 µM: [5]
46.7 µM: [18]
47.1 µM: [11]
60.6 µM: [51]
25.4 µM: [50]
9.59 µM: [10]
18.8 µM: [46]
96.2 µM: [36]
not listed: [54] | [55] | [56] | [57] | [58]
> 100 µM: all other assays above

N#Cc1c(N2CCN(c3ccc([N+](=O)[O-])cc3)CC2)[n+](=O)c2ccccc2n1[O-]
0.921 µM: [19]
5.69 µM: [54]
not listed: [5] | [28] | [42] | [44] | [58]
> 100 µM: all other assays above

CCCCC(=O)Nc1ccc2c(C)cc(-c3ccc(-c4cc(-c5ccc(C)cc5)cc(-c5ccc(-c6cc(C)c7ccc(NC(=O)CCCC)nc7n6)cc5)n4)cc3)nc2n1
not listed: [5] | [30] | [31] | [36] | [41] | [47] | [54] | [56] | [57] | [58]
> 100 µM: all other assays above

CN(C)c1ccc2nc(CC(O)(C(F)(F)F)C(F)(F)F)ccc2c1
not listed: [54]
> 10 µM: all other assays above
